{
  "source": "patent US4568765A",
  "about": "“Isoprenylamine derivatives” (priority 1981, dated 1986)",
  "key": {"[1]": {"test_system": "human interferon; normal diploid cells (fibroblast)", "assay": "Human interferon inducing activity (in vitro), 3H-uridine-uptake inhibition", "type": "cell-based", "settings": "25 n molar suspension, radioisotope microassay", "experimental": "Interferon was induced according to the method of Edward A. Havell et al. by treating normal diploid cells (fibroblast) originated from human being with each test compound (in the form of ethanol solution diluted with PBS (-), 25 n molar suspension). Using the radioisotope microassay method of H. Ishitsuka et al., interferon was measured in terms of 3H-uridine-uptakeinhibition rate."}, "[2]": {"assay": "Toxicity (50% lethal dose, intravenous)", "type": "in vivo", "settings": "ddY male mice 20-25 g", "from_the_text": "Using ddY male mice weighing 20-25 g, 50% lethal dose of each test compound when intravenously administered was obtained, the results of which are shown in Table 6."}, "vaccinia virus [3]": {"test_system": "vaccinia virus", "type": "in vivo", "settings": "ICR female mice; 50 mg/kg intraperitoneally 24 hours before i.v. virus inoculation; lesions counted on 8th day; against surfactant solution group"}, "tumor cells KN7 -8": {"test_system": "tumor cells KN7 -8", "assay": "Anti-tumor activity (survivors on the 30th day)", "type": "in vivo", "settings": "survivors/group of 6 Balb/c male mice, 5×10^5 KN7 -8 cells i.p., 30 mg/kg i.p. 24 hours before and on 2nd and 5th day after inoculation", "experimental": "Groups, each consisting of 6 Balb/c male mice weighing about 20 g, were intraperitoneally administered 5×10^5 of tumor cells KN7 -8. Each test compound suspended in a surfactant solution was intraperitoneally administered (each time at a rate of 30 mg/kg) to the mice 24 hours before inoculation of the tumor cells and on the second day and the fifth day after the inoculation, totalling 3 times, and the anti-tumor activity was evaluated in terms of number of survivors on the 30th day after the inoculation."}, "vaccinia virus [4]": {"test_system": "vaccinia virus", "type": "cell-based", "settings": "vero cells; 50 n molar concentration"}},
  "note": "Like-named read-outs stand apart in the source and are kept apart here.",
  "data": [
    {"compound": "CC(C)=CCCC(C)=CCCC(C)=CCCC(C)=CCCC(C)=CCCC(C)=CCCC(C)=CCCC(C)=CCCC(C)=CCCC(C)=CCN(CCN(CCN(CCNCc1ccccc1)Cc1ccccc1)Cc1ccccc1)Cc1ccccc1", "values": [
      {"measurement": "Human interferon (in vitro) 3H-uridine-uptake inhibition rate %", "setting": "[1]", "value": 23.2, "unit": "%"}
    ]},
    {"compound": "CCNCCN(CC)CCN(CC)CCN(CC)CC=C(C)CCCC(C)CCCC(C)CCCC(C)C", "note": "(stereo not shown)", "values": [
      {"measurement": "LD50", "setting": "[2]; mouse, in vivo, iv, read-out: LD50", "value": 34, "unit": "mg/kg"}
    ]},
    {"compound": "CC(C)=CCCC(C)=CCCC(C)=CCCC(C)=CCCC(C)=CCCC(C)=CCCC(C)=CCCC(C)=CCCC(C)=CCCC(C)=CCNCCNCCNCCN", "note": "[drawing 16]", "values": [
      {"measurement": "Prevention from vaccinia infection (Pock inhibition rate %)", "setting": "vaccinia virus [3]", "value": 87.9, "unit": "%"}
    ]},
    {"compound": "CC(C)=CCCC(C)=CCCC(C)=CCCC(C)=CCCC(C)=CCCC(C)=CCCC(C)=CCCC(C)=CCCC(C)=CCCC(C)=CCNCCNCCN", "note": "[drawing 17]", "values": [
      {"measurement": "Prevention from vaccinia infection (Pock inhibition rate %)", "setting": "vaccinia virus [3]", "value": 51.9, "unit": "%"}
    ]},
    {"compound": "CC(C)=CCCC(C)=CCCC(C)=CCCC(C)=CCCC(C)=CCCC(C)=CCCC(C)=CCCC(C)=CCCC(C)=CCNCCNCCNCCN", "note": "[drawing 18]", "values": [
      {"measurement": "Prevention from vaccinia infection (Pock inhibition rate %)", "setting": "vaccinia virus [3]", "value": 76.1, "unit": "%"}
    ]},
    {"compound": "CC(C)=CCCC(C)=CCCC(C)=CCCC(C)=CCCC(C)=CCCC(C)=CCCC(C)=CCCC(C)=CCCC(C)=CCCC(C)=CCNCCNCCNCCN", "note": "[drawing 19]", "values": [
      {"measurement": "Anti-tumor activity (Survivor on the 30th day)", "setting": "tumor cells KN7 -8", "value": "5/6"}
    ]},
    {"compound": "CC(C)=CCCC(C)=CCCC(C)=CCCC(C)=CCCC(C)=CCCC(C)=CCCC(C)=CCCC(C)=CCCC(C)=CCCC(C)=CCNCCNCCN", "note": "[drawing 20]", "values": [
      {"measurement": "Anti-tumor activity (Survivor on the 30th day)", "setting": "tumor cells KN7 -8; 30 mg/kg", "value": "1/6"}
    ]},
    {"compound": "CC(C)=CCCC(C)=CCCC(C)=CCCC(C)=CCCC(C)=CCCC(C)=CCCC(C)=CCCC(C)=CCCC(C)=CCNCCNCCNCCN", "note": "[drawing 21]", "values": [
      {"measurement": "Anti-tumor activity (Survivor on the 30th day)", "setting": "tumor cells KN7 -8", "value": "3/6"}
    ]},
    {"compound": "CC(C)=CCCC(C)=CCCC(C)=CCCC(C)=CCCC(C)=CCCC(C)=CCCC(C)=CCCC(C)=CCCC(C)=CCCC(C)=CCNCCNCCN", "note": "[drawing 22]", "values": [
      {"measurement": "Anti-tumor activity (Survivor on the 30th day)", "setting": "tumor cells KN7 -8; 30 mg/kg", "value": "2/6"}
    ]},
    {"compound": "CC(C)=CCCC(C)=CCCC(C)=CCCC(C)=CCCC(C)=CCCC(C)=CCCC(C)=CCCC(C)=CCCC(C)=CCCC(C)=CCNCCNCCN", "note": "[drawing 24]", "values": [
      {"measurement": "Human interferon (in vitro) 3H-uridine-uptake inhibition rate %", "setting": "[1]", "value": 15.1, "unit": "%"}
    ]},
    {"compound": "CC(C)=CCCC(C)=CCCC(C)=CCCC(C)=CCCC(C)=CCCC(C)=CCCC(C)=CCCC(C)=CCCC(C)=CCCC(C)=CCNCCNCCNCCN", "note": "[drawing 25]", "values": [
      {"measurement": "Anti-vaccinia virus activity (in vitro) (Plaque inhibition rate %)", "setting": "vaccinia virus [4]", "value": 44.5, "unit": "%"}
    ]},
    {"compound": "CC(C)=CCCC(C)=CCCC(C)=CCCC(C)=CCCC(C)=CCCC(C)=CCCC(C)=CCCC(C)=CCCC(C)=CCCC(C)=CCNCCNCCNCCN", "note": "[drawing 27]", "values": [
      {"measurement": "LD50", "setting": "[2]", "value": 57, "unit": "mg/kg"}
    ]},
    {"compound": "CC(C)=CCCC(C)=CCCC(C)=CCCC(C)=CCCC(C)=CCCC(C)=CCCC(C)=CCCC(C)=CCCC(C)=CCCC(C)=CCNCCNCCNCCN", "note": "[drawing 28]", "values": [
      {"measurement": "LD50", "setting": "[2]", "value": 21, "unit": "mg/kg"}
    ]}
  ]
}
